Experimental data published in US9834518B2, “Compounds for inhibiting cell proliferation in EGFR-driven cancers” (ARIAD Pharmaceuticals, Inc., priority 2011, dated 2017).

Assays:
[1] = target: human EGFR (native sequence) (Homo sapiens, UniProt P00533); assay: Kinase inhibition, human EGFR (native sequence); type: biochemical; settings: 10 μM ATP; 10 pt curves, 3 μM top concentration (singlicates)
Protocol: (§1) Kinase inhibitory activity of the compounds was measured against human EGFR (native sequence) and against EGFR bearing the L858R mution and the L858R/T790M double mutation (EGFR, L858R, and L858R/T790M, respectively in Table 1). Additional assays can be conducted with EGFR deletion mutants such as delE746-A750 with or without the additional T790M mutation. Assay conditions included 10 pt curves with 3 μM top concentration (singlicates) and 10 μM ATP.

[2] = target: EGFR bearing the L858R mution (Homo sapiens, UniProt P00533, L858R); assay: Kinase inhibition, EGFR L858R; type: biochemical; settings: 10 μM ATP; 10 pt curves, 3 μM top concentration (singlicates)
EGFR bearing the L858R mution, sequence (P00533 25-1210 L858R): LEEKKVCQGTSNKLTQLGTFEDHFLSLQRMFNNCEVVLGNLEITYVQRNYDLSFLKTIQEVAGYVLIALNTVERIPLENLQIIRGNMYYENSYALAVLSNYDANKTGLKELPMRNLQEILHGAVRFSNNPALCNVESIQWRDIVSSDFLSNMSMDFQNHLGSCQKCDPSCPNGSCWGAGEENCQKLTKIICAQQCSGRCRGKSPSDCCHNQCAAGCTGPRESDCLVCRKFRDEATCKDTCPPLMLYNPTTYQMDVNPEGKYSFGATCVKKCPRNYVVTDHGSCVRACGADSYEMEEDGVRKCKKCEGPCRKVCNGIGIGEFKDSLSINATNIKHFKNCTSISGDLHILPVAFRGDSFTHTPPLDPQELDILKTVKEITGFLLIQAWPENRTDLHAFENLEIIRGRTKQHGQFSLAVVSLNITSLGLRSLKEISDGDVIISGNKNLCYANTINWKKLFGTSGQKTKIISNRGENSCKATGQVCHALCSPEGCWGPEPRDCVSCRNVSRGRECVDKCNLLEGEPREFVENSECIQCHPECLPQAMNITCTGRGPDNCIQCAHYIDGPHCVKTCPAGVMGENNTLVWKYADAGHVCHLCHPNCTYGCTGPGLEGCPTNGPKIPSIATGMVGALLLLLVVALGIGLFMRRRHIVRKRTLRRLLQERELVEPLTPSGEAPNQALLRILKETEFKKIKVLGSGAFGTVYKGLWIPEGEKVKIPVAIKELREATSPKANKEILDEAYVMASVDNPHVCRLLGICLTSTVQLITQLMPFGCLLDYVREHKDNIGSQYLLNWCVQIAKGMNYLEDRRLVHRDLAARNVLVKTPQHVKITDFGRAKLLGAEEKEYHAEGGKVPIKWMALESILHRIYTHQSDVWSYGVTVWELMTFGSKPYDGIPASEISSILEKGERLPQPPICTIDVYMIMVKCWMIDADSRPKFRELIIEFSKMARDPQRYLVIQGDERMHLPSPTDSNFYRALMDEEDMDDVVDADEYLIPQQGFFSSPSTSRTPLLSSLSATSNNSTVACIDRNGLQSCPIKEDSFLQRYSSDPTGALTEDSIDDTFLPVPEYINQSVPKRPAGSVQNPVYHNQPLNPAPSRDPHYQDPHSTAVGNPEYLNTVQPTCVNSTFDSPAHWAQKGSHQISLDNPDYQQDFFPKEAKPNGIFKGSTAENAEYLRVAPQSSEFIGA
Protocol: as §1

[3] = target: EGFR bearing the L858R/T790M double mutation (Homo sapiens, UniProt P00533, L858R/T790M); assay: Kinase inhibition, EGFR L858R/T790M; type: biochemical; settings: 10 μM ATP; 10 pt curves, 3 μM top concentration (singlicates)
EGFR bearing the L858R/T790M double mutation, sequence (P00533 25-1210 T790M/L858R): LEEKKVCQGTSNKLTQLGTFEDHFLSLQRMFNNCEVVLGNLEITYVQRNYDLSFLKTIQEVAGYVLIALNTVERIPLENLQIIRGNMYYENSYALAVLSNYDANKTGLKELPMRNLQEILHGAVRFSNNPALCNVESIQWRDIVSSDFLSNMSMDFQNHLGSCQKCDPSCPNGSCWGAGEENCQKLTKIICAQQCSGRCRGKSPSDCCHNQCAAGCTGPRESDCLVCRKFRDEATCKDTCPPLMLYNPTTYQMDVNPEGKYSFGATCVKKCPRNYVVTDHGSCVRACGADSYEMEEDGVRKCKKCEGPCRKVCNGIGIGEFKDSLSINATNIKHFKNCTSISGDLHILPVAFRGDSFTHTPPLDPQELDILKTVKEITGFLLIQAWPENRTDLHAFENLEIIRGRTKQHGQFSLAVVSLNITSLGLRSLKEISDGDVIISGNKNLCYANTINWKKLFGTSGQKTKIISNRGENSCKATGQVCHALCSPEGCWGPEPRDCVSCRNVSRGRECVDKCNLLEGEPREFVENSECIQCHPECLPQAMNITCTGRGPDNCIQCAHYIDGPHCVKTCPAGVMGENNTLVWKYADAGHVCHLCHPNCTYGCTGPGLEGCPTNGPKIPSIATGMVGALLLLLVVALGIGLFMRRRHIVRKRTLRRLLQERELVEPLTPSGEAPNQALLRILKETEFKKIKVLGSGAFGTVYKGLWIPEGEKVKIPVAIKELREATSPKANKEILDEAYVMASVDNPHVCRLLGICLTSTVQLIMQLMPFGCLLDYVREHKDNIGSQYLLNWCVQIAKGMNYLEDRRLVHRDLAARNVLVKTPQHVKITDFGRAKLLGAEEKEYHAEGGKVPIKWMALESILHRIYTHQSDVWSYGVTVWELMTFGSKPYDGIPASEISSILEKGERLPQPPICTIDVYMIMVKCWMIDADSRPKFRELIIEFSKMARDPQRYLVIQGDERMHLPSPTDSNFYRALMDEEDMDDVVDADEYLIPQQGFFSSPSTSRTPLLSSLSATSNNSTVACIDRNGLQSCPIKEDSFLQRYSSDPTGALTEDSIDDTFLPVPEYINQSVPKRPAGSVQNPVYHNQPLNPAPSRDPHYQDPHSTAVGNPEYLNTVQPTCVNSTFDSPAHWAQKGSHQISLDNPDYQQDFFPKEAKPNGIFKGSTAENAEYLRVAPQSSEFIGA
Protocol: as §1

[4] = system: BAF3 PARENTAL; assay: Cell proliferation (MTT), BAF3 parental; type: cell-based; settings: Mus musculus
Protocol: (§2) We also assessed the antiproliferative activity of compounds of Formula (I) against BaF3 cells expressing the target EGFR mutations or control (i.e., cell lines expressing wildtype EGFR). Assays were conducted using MTT.

[5] = target: BAF3 EGFR DEL T790M PURO POOL (Homo sapiens, UniProt P00533, DEL746-750/T790M, cells depend on it); assay: Cell proliferation (MTT), BAF3 EGFR DEL T790M; type: cell-based
BAF3 EGFR DEL T790M PURO POOL, sequence (P00533 with tags, fused parts or gaps DEL746-750/T790M): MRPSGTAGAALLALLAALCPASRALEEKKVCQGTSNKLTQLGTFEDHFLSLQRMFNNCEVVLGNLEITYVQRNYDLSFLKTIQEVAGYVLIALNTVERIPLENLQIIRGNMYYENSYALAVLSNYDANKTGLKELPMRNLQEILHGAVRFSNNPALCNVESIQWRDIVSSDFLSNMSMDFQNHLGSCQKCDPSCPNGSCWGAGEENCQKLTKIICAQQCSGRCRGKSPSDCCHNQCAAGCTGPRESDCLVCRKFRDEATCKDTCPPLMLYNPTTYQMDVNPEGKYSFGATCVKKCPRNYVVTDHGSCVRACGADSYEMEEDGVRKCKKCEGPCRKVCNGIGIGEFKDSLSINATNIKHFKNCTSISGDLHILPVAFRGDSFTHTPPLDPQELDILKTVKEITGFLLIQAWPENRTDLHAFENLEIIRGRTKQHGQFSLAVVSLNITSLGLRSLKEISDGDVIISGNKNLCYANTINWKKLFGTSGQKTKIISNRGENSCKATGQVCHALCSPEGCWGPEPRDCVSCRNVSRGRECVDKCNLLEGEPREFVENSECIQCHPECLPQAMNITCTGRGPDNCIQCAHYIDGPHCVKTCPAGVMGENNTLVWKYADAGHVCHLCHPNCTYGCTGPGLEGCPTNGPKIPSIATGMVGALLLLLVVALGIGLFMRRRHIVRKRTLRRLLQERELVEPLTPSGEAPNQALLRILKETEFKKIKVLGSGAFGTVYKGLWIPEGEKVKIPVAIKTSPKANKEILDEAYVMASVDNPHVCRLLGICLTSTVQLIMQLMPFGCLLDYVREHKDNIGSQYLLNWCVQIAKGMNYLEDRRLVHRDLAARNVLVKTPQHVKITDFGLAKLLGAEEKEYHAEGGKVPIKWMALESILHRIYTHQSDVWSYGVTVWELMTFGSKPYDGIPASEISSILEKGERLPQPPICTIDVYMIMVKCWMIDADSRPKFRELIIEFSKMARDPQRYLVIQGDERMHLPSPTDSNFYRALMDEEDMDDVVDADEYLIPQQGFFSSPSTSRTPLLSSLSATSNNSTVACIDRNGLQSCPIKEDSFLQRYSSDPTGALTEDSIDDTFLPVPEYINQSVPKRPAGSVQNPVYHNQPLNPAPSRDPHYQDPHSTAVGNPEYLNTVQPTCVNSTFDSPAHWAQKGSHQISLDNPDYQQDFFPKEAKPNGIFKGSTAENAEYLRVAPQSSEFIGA
Protocol: as §2

[6] = system: BAF3 EGFR L858R-T790M PURO POOL; assay: Cell proliferation (MTT), BAF3 EGFR L858R-T790M; type: cell-based; settings: Ba/F3 EGFR
Protocol: as §2

human EGFR (native sequence), sequence (P00533 25-1210): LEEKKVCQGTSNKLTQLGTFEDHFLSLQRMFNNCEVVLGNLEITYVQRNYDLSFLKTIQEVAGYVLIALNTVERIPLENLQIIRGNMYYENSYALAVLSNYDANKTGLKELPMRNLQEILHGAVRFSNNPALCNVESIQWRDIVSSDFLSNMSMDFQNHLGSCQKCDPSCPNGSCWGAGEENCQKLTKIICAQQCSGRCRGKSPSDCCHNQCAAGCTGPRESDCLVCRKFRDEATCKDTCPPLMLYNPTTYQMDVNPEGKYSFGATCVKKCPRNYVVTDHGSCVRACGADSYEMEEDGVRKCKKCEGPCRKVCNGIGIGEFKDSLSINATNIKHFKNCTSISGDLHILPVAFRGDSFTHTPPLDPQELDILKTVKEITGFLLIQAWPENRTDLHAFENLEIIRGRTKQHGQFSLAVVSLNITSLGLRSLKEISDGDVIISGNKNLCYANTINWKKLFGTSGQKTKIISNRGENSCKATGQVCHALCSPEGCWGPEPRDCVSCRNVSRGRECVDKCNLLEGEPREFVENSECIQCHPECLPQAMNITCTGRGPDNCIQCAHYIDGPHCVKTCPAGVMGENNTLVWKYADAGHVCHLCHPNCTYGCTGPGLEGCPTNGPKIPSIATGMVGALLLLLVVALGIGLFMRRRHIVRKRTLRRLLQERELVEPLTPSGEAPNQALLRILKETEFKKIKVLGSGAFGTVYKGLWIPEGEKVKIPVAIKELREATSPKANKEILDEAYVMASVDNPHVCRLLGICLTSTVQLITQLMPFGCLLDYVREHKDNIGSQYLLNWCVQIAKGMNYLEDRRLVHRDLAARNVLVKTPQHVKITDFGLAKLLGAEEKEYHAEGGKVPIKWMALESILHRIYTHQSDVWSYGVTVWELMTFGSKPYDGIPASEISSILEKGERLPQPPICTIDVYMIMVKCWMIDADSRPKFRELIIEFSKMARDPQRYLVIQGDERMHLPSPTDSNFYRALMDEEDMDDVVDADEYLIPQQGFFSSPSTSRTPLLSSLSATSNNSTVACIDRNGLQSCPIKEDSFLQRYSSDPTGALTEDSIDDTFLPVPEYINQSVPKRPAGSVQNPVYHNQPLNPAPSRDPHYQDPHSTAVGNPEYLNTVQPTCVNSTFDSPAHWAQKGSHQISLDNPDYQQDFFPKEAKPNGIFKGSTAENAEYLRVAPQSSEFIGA

| SMILES | IC50 [1] [nM] | IC50 [2] [nM] | IC50 [3] [nM] | IC50 [4] [nM] | IC50 [5] [nM] | IC50 [6] [nM] |
| --- | --- | --- | --- | --- | --- | --- |
| C=CC(=O)N[C@@H]1CCC[C@@H](Nc2ncc(Cl)c(Nc3ccccc3P(C)(C)=O)n2)C1 (racemic) [Example 42, rac-N-((1R,3R)-3-((5-chloro-4-((2-(dimethylphosphoryl)phenyl)amino)pyrimidin-2-yl)amino)cyclohexyl)acrylamide] | ≥ 250 | ≥ 250 | ≥ 250 | ≥ 250 | ≥ 250 |  |
| C=CC(=O)Nc1cc(Nc2ncc(Cl)c(Nc3ccccc3P(C)(C)=O)n2)c(OC)cc1O[C@@H](COC)CN(CC)CC (stereo in doubt) [Example 29, rac-(R)—N-(5-((5-chloro-4-((2-(dimethylphosphoryl)phenyl)amino)pyrimidin-2-yl)amino)-2-((1-(diethylamino)-3-methoxypropan-2-yl)oxy)-4-methoxyphenyl)acrylamide] | < 51 | < 51 | < 51 | ≥ 250 | < 51 | < 51 |
| C=CC(=O)Nc1cc(Nc2ncc(Cl)c(Nc3ccccc3P(C)(C)=O)n2)c(OC)cc1O[C@H](COC)CN(CC)CC (stereo in doubt) [Example 30, rac-(R)—N-(5-((5-chloro-4-((2-(dimethylphosphoryl)phenyl)amino)pyrimidin-2-yl)amino)-2-((1-(diethylamino)-3-methoxypropan-2-yl)oxy)-4-methoxyphenyl)acrylamide] | < 51 | < 51 | < 51 | ≥ 250 | < 51 | < 51 |
| C=CC(=O)N[C@H]1CCC[C@@H](Nc2ncc(Cl)c(Nc3ccccc3P(C)(C)=O)n2)C1 (stereo in doubt) [Example 43, N-(3-((5-chloro-4-((2-(dimethylphosphoryl)phenyl)amino)pyrimidin-2-yl)amino)cyclohexyl)acrylamide] | ≥ 250 | ≥ 250 | ≥ 250 | ≥ 250 | ≥ 250 |  |
| C=CC(=O)Nc1ccc(OC)c(Nc2ncc(Cl)c(Nc3ccccc3P(C)(C)=O)n2)c1 [Example 1, N-(3-((5-chloro-4-((2-(dimethylphosphoryl)phenyl)amino)pyrimidin-2-yl)amino)-4-methoxyphenyl)acrylamide] | 51 to 100 | < 51 | < 51 | ≥ 250 | < 51 | < 51 |
| COc1ccc(NC(=O)/C=C/CN(C)C)cc1Nc1ncc(Cl)c(Nc2ccccc2P(C)(C)=O)n1 [Example 2, (E)-N-(3-((5-chloro-4-((2-(dimethylphosphoryl)phenyl)amino)pyrimidin-2-yl)amino)-4-methoxyphenyl)-4-(dimethylamino)but-2-enamide] | 101 to 250 | < 51 | < 51 | ≥ 250 | < 51 | 51 to 100 |
| COc1ccc(NC(=O)/C=C/CN2CCOCC2)cc1Nc1ncc(Cl)c(Nc2ccccc2P(C)(C)=O)n1 [Example 3, (E)-N-(3-((5-chloro-4-((2-(dimethylphosphoryl)phenyl)amino)pyrimidin-2-yl)amino)-4-methoxyphenyl)-4-morpholinobut-2-enamide] | ≥ 250 | < 51 | 51 to 100 | ≥ 250 |  |  |
| COc1ccc(NC(=O)/C=C/CN2CCN(C)CC2)cc1Nc1ncc(Cl)c(Nc2ccccc2P(C)(C)=O)n1 [Example 4, (E)-N-(3-((5-chloro-4-((2-(dimethylphosphoryl)phenyl)amino)pyrimidin-2-yl)amino)-4-methoxyphenyl)-4-(4-methylpiperazin-1-yl)but-2-enamide] | ≥ 250 | < 51 | 101 to 250 | ≥ 250 | ≥ 250 |  |
| C/C=C/C(=O)Nc1ccc(OC)c(Nc2ncc(Cl)c(Nc3ccccc3P(C)(C)=O)n2)c1 [Example 5a, (E)-N-(3-((5-chloro-4-((2-(dimethylphosphoryl)phenyl)amino)pyrimidin-2-yl)amino)-4-methoxyphenyl)but-2-enamide] |  | ≥ 250 | ≥ 250 | ≥ 250 | ≥ 250 |  |
| COc1ccc(NC(=O)C=C(C)C)cc1Nc1ncc(Cl)c(Nc2ccccc2P(C)(C)=O)n1 [Example 5b, N-(3-((5-chloro-4-((2-(dimethylphosphoryl)phenyl)amino)pyrimidin-2-yl)amino)-4-methoxyphenyl)-3-methylbut-2-enamide] |  | ≥ 250 | ≥ 250 | ≥ 250 | ≥ 250 |  |
| C=C(C)C(=O)Nc1ccc(OC)c(Nc2ncc(Cl)c(Nc3ccccc3P(C)(C)=O)n2)c1 [Example 5c, N-(3-((5-chloro-4-((2-(dimethylphosphoryl)phenyl)amino)pyrimidin-2-yl)amino)-4-methoxyphenyl)methacrylamide] | ≥ 250 | ≥ 250 | ≥ 250 | ≥ 250 | 101 to 250 | ≥ 250 |
| C=CC(=O)Nc1cccc(Nc2ncc(Cl)c(Nc3ccccc3P(C)(C)=O)n2)c1 [Example 5d, N-(3-((5-chloro-4-((2-(dimethylphosphoryl)phenyl)amino)pyrimidin-2-yl)amino)phenyl)acrylamide] | 101 to 250 | < 51 | < 51 | 51 to 100 | < 51 | < 51 |
| C#CC(=O)Nc1ccc(OC)c(Nc2ncc(Cl)c(Nc3ccccc3P(C)(C)=O)n2)c1 [Example 6a, N-(3-((5-chloro-4-((2-(dimethylphosphoryl)phenyl)amino)pyrimidin-2-yl)amino)-4-methoxyphenyl)propiolamide] | < 51 | < 51 | < 51 | ≥ 250 | ≥ 250 |  |
| CC#CC(=O)Nc1ccc(OC)c(Nc2ncc(Cl)c(Nc3ccccc3P(C)(C)=O)n2)c1 [Example 6b, N-(3-((5-chloro-4-((2-(dimethylphosphoryl)phenyl)amino)pyrimidin-2-yl)amino)-4-methoxyphenyl)but-2-ynamide] | ≥ 250 | 51 to 100 | ≥ 250 | ≥ 250 | < 51 | 51 to 100 |
| C=CS(=O)(=O)Nc1ccc(OC)c(Nc2ncc(Cl)c(Nc3ccccc3P(C)(C)=O)n2)c1 [Example 7, N-(3-((5-chloro-4-((2-(dimethylphosphoryl)phenyl)amino)pyrimidin-2-yl)amino)-4-methoxyphenyl)ethenesulfonamide] | < 51 | < 51 | < 51 | ≥ 250 |  |  |
| C=CC(=O)Nc1cccc(Oc2nc(Nc3ccc(P(C)(C)=O)cc3OC)ncc2Cl)c1 [Example 9, N-(3-((5-chloro-2-((4-(dimethylphosphoryl)-2-methoxyphenyl)amino)pyrimidin-4-yl)oxy)phenyl)acrylamide] | 101 to 250 | < 51 | < 51 | ≥ 250 | 51 to 100 | 51 to 100 |
| COc1ccc(NC(=O)C2(C)CO2)cc1Nc1ncc(Cl)c(Nc2ccccc2P(C)(C)=O)n1 (centres unmarked) [Example 10, N-(3-((5-chloro-4-((2-(dimethylphosphoryl)phenyl)amino)pyrimidin-2-yl)amino)-4-methoxyphenyl)-2-methyloxirane-2-carboxamide] | < 51 | < 51 | < 51 | ≥ 250 | < 51 | < 51 |
| C=CC(=O)Nc1ccc(OC)c(Nc2ncc(F)c(Nc3ccccc3P(C)(C)=O)n2)c1 [Example 11, N-(3-((4-((2-(dimethylphosphoryl)phenyl)amino)-5-fluoropyrimidin-2-yl)amino)-4-methoxyphenyl)acrylamide] | 101 to 250 | < 51 | < 51 | ≥ 250 | 51 to 100 | 101 to 250 |
| C=C(CNc1ccc(OC)c(Nc2ncc(Cl)c(Nc3ccccc3P(C)(C)=O)n2)c1)C(=O)OC [Example 16, methyl 2-(((3-((5-chloro-4-((2-(dimethylphosphoryl)phenyl)amino)pyrimidin-2-yl)amino)-4-methoxyphenyl)amino)methyl)acrylate] | ≥ 250 | < 51 | 101 to 250 | ≥ 250 |  |  |
| C=CC(=O)Nc1ccc(OC)c(Nc2nc(Nc3ccccc3P(C)(C)=O)c3c(F)c[nH]c3n2)c1 [Example 23, N-(3-((4-((2-(dimethylphosphoryl)phenyl)amino)-5-fluoro-7H-pyrrolo[2,3-d]pyrimidin-2-yl)amino)-4-methoxyphenyl)acrylamide] | ≥ 250 | ≥ 250 | 101 to 250 | ≥ 250 | ≥ 250 |  |
| C=CC(=O)Nc1ccc(Nc2ncc(Cl)c(Nc3ccccc3P(C)(C)=O)n2)c(OC)c1 [Example 45, N-(4-((5-chloro-4-((2-(dimethylphosphoryl)phenyl)amino)pyrimidin-2-yl)amino)-3-methoxyphenyl)acrylamide] | ≥ 250 | 101 to 250 | ≥ 250 | ≥ 250 | ≥ 250 |  |
